Experiments:
[1] = human, hepatocytes, 4 h, 1 µM
in vitro = details: dog, MDCK
physchem = details: octanol/water
[2] = Retention time of compound in phosphate buffer at pH 7.4 measured after approximately 150 mins by HPLC-UV analysis; type: physicochemical
[3] = Drug degradation in phosphate/D2O buffer at pH 7.6 assessed as half-life by H1-NMR analysis; type: ADME
[4] = human, hepatocytes, 4 h, 5 µM
[5] = biological target: Branched-chain alpha-ketoacid dehydrogenase kinase (Homo sapiens) (UniProt O14874); assay: Potency index, ratio of PF-07208254 IC50 to test compound IC50 for inhibition of human BDK using LBD-Tev-PhosphoPep/Lipoyl as substrate preincubated for 15 mins followed by substrate/ATP addition and measured after 90 mins by TR-FRET assay
[6] = biological target: Branched-chain alpha-ketoacid dehydrogenase kinase (Homo sapiens) (UniProt O14874); assay: Potency index, ratio of PF-07208254 IC50 to test compound IC50 for inhibition of BDK in human skeletal myocyte using BCKDHA as substrate assessed as inhibition of substrate phosphorylation incubated for 60 mins by AlphaLISA surefire ultra assay
Cytochrome P450 3A4 [7] = biological target: T1, Cytochrome P450 3A4 (Homo sapiens, UniProt P08684); assay: Reversible inhibition of human CYP3A4-mediated testosterone-6beta-hydroxylation in human liver microsomes using testosterone as substrate in presence of NADPH; type: ADME, Microsome
[8] = biological target: Branched-chain alpha-ketoacid dehydrogenase kinase (Mus musculus, UniProt O55028); assay: Inhibition of mouse BDK using LBD-Tev-PhosphoPep/Lipoyl as substrate preincubated for 15 mins followed by substrate/ATP addition and measured after 90 mins by TR-FRET assay
[9] = biological target: UDP-glucuronosyltransferase 1A9 (Homo sapiens, UniProt O60656); assay: Drug metabolism assessed as recombinant human UGT1A9-mediated (2S,3S,4S,5R)-6-((6-fluoro-3-(2,4,5-trifluoro-3-methoxyphenyl)benzo[b]thiophene-2-carbonyl)oxy)-3,4,5-trihydroxytetrahydro-2H-pyran-2-carboxylic acid metabolite formation at 1 uM; type: ADME; details: recombinant enzyme
Cytochrome P450 = assay: Drug metabolism in human hepatocytes assessed as CYP450-catalyzed o-demethylation mediated 6-fluoro-3-(2,4,5-trifluoro-3-hydroxyphenyl)benzo[b]thiophene-2-carboxylic acid metabolite formation by mass spectrometric analysis; type: ADME, cell-based, Hepatocyte
[10] = biological target: UDP-glucuronosyltransferase 1A3 (Homo sapiens, UniProt P35503); assay: Drug metabolism assessed as recombinant human UGT1A3-mediated (2S,3S,4S,5R)-6-((6-fluoro-3-(2,4,5-trifluoro-3-methoxyphenyl)benzo[b]thiophene-2-carbonyl)oxy)-3,4,5-trihydroxytetrahydro-2H-pyran-2-carboxylic acid metabolite formation at 1 uM; type: ADME; details: recombinant enzyme
[11] = biological target: Multidrug and toxin extrusion protein 2 (Homo sapiens, UniProt Q86VL8); assay: Inhibition of human MATE2K expressed in HEK293 cells using [14C]metformin as substrate preincubated for 30 mins followed by substrate addition and measured after 1 to 4 mins; type: cell-based
[12] = biological target: UDP-glucuronosyltransferase 2B15 (Homo sapiens, UniProt P54855); assay: Drug metabolism assessed as recombinant human UGT2B15-mediated (2S,3S,4S,5R)-6-((6-fluoro-3-(2,4,5-trifluoro-3-methoxyphenyl)benzo[b]thiophene-2-carbonyl)oxy)-3,4,5-trihydroxytetrahydro-2H-pyran-2-carboxylic acid metabolite formation at 1 uM; type: ADME; details: recombinant enzyme
Cytochrome P450 1A2 = Cytochrome P450 1A2 (Homo sapiens, UniProt P05177); assay: Reversible inhibition of human CYP1A2-mediated phenacetin-O-dealkylation in human liver microsomes using phenacetin as substrate in presence of NADPH; type: ADME, Microsome
[13] = biological target: Solute carrier family 22 member 1 (Homo sapiens, UniProt O15245); assay: Inhibition of human OCT1 expressed in HEK293 cells using [14C]metformin as substrate preincubated for 30 mins followed by substrate addition and measured after 1 to 4 mins; type: cell-based
Cytochrome P450 3A5 = Cytochrome P450 3A5 (Homo sapiens, UniProt P20815); assay: Reversible inhibition of human CYP3A5-mediated nifedipine oxidation in human liver microsomes using nifedipine as substrate in presence of NADPH; type: ADME, Microsome
Cytochrome P450 3A4 [14] = biological target: T1, Cytochrome P450 3A4; assay: Reversible inhibition of human CYP3A4-mediated midazolam-1'-hydroxylation in human liver microsomes using midazolam as substrate in presence of NADPH; type: ADME, Microsome
Cytochrome P450 2D6 = Cytochrome P450 2D6 (Homo sapiens, UniProt P10635); assay: Reversible inhibition of human CYP2D6-mediated dextromethorphan-O-demethylation in human liver microsomes using dextromethorphan as substrate in presence of NADPH; type: ADME, Microsome
[15] = biological target: Multidrug and toxin extrusion protein 1 (Homo sapiens, UniProt Q96FL8); assay: Inhibition of human MATE1 expressed in HEK293 cells using [14C]metformin as substrate preincubated for 30 mins followed by substrate addition and measured after 1 to 4 mins; type: cell-based
[16] = biological target: Solute carrier organic anion transporter family member 1B1 (Homo sapiens, UniProt Q9Y6L6); assay: Inhibition of human OATP1B1 expressed in HEK293 cells using rosuvastatin as substrate preincubated for 30 mins followed by substrate addition and measured after 1 to 4 mins; type: cell-based
Cytochrome P450 2B6 = Cytochrome P450 2B6 (Homo sapiens, UniProt P20813); assay: Reversible inhibition of human CYP2B6-mediated bupropion hydroxylation in human liver microsomes using bupropion as substrate in presence of NADPH; type: ADME, Microsome
[17] = biological target: Solute carrier family 22 member 2 (Homo sapiens, UniProt O15244); assay: Inhibition of human OCT2 expressed in HEK293 cells using [14C]metformin as substrate preincubated for 30 mins followed by substrate addition and measured after 1 to 4 mins; type: cell-based
[18] = biological target: Solute carrier organic anion transporter family member 1B3 (Homo sapiens, UniProt Q9NPD5); assay: Inhibition of human OATP1B3 expressed in HEK293 cells using rosuvastatin as substrate preincubated for 30 mins followed by substrate addition and measured after 1 to 4 mins; type: cell-based
Cytochrome P450 2C9 = Cytochrome P450 2C9 (Homo sapiens, UniProt P11712); assay: Reversible inhibition of human CYP2C9-mediated diclofenac-4'-hydroxylation in human liver microsomes using diclofenac as substrate in presence of NADPH; type: ADME, Microsome
[19] = biological target: UDP-glucuronosyltransferase 1A1 (Homo sapiens, UniProt P22309); assay: Drug metabolism assessed as recombinant human UGT1A1-mediated (2S,3S,4S,5R)-6-((6-fluoro-3-(2,4,5-trifluoro-3-methoxyphenyl)benzo[b]thiophene-2-carbonyl)oxy)-3,4,5-trihydroxytetrahydro-2H-pyran-2-carboxylic acid metabolite formation at 1 uM; type: ADME; details: recombinant enzyme
Cytochrome P450 2C19 = Cytochrome P450 2C19 (Homo sapiens, UniProt P33261); assay: Reversible inhibition of human CYP2C19-mediated S-mephenytoin-4'-hydroxylation in human liver microsomes using S-mephenytoin as substrate in presence of NADPH; type: ADME, Microsome
[20] = biological target: ATP-dependent translocase ABCB1 (Homo sapiens, UniProt P08183); assay: Inhibition of human MDR1 expressed in HEK293 cell vesicles using N-methylquinidine as substrate preincubated for 30 mins followed by substrate addition and measured after 1 to 4 mins; type: subcellular, Vesicle
[21] = biological target: UDP-glucuronosyltransferase 2B4 (Homo sapiens, UniProt P06133); assay: Drug metabolism assessed as recombinant human UGT2B4-mediated (2S,3S,4S,5R)-6-((6-fluoro-3-(2,4,5-trifluoro-3-methoxyphenyl)benzo[b]thiophene-2-carbonyl)oxy)-3,4,5-trihydroxytetrahydro-2H-pyran-2-carboxylic acid metabolite formation at 1 uM; type: ADME; details: recombinant enzyme
[22] = biological target: Solute carrier family 22 member 6 (Homo sapiens, UniProt Q4U2R8); assay: Inhibition of human OAT1 expressed in HEK293 cells using p-aminohippuric acid as substrate preincubated for 30 mins followed by substrate addition and measured after 1 to 4 mins; type: cell-based
[23] = biological target: Organic anion transporter 3 (Homo sapiens, UniProt Q8TCC7); assay: Inhibition of human OAT3 expressed in HEK293 cells using estrone-3-sulfate as substrate preincubated for 30 mins followed by substrate addition and measured after 1 to 4 mins; type: cell-based
Cytochrome P450 2C8 = Cytochrome P450 2C8 (Homo sapiens, UniProt P10632); assay: Reversible inhibition of human CYP2C8-mediated amodiaquine N-dealkylation in human liver microsomes using amodiaquine as substrate in presence of NADPH; type: ADME, Microsome

T1 sequence (P08684 whole entry, the tested form may be a part): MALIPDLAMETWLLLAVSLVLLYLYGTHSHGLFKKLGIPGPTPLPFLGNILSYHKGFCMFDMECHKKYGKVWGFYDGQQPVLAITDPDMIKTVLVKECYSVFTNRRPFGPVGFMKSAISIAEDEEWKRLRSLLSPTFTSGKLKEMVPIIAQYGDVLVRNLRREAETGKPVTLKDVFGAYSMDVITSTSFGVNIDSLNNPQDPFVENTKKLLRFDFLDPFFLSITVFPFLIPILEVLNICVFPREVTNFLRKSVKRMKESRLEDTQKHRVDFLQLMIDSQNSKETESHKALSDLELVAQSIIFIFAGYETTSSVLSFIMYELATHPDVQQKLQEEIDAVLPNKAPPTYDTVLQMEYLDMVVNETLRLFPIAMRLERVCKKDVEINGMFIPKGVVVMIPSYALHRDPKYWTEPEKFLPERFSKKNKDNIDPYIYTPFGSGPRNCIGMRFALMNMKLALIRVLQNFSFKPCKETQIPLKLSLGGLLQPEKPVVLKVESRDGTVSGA
Sequence of Cytochrome P450 1A2 (P05177 whole entry): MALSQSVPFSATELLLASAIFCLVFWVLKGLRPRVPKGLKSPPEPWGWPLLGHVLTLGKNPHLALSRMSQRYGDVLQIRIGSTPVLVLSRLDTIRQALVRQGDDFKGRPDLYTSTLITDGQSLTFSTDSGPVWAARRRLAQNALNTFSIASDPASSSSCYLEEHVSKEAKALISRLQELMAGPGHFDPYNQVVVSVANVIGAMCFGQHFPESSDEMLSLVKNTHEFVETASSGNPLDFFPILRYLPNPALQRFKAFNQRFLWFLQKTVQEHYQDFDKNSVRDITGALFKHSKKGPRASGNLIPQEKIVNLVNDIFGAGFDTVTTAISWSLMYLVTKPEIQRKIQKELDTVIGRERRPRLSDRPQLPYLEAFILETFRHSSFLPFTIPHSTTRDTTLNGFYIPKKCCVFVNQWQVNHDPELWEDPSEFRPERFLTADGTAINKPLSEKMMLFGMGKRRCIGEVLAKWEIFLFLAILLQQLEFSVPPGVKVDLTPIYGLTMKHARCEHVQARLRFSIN
Sequence of Solute carrier family 22 member 6 (Q4U2R8 whole entry): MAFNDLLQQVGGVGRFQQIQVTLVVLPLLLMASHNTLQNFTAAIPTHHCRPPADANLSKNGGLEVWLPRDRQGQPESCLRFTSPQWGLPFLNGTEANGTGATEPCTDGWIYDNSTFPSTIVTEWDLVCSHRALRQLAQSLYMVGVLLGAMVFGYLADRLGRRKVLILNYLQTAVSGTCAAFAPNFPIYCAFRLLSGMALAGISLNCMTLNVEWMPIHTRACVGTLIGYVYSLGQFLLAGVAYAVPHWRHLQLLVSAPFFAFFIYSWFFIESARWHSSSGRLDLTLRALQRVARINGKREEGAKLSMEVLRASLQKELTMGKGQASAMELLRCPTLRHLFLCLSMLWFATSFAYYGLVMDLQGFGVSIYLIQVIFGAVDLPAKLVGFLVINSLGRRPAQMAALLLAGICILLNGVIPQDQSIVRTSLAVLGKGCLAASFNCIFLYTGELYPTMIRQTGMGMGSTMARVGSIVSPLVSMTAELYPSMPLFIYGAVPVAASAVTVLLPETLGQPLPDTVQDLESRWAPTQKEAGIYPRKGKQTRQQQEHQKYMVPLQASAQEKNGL
Sequence of Multidrug and toxin extrusion protein 2 (Q86VL8 whole entry): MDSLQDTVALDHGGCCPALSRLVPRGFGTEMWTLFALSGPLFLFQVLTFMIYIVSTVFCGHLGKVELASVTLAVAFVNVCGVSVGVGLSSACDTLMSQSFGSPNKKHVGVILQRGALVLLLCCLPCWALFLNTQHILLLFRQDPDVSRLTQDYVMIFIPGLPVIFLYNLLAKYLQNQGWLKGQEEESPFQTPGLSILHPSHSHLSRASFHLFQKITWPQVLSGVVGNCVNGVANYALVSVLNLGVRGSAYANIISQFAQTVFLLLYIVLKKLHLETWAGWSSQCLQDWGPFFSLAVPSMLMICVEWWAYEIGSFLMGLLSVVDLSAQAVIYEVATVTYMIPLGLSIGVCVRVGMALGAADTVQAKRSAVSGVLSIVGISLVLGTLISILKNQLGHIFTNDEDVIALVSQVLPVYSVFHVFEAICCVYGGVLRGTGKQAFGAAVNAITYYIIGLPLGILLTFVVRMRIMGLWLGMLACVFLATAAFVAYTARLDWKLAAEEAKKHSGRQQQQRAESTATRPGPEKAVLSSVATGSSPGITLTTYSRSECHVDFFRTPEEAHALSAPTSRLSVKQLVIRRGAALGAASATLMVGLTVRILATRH
Sequence of Cytochrome P450 2C19 (P33261 whole entry): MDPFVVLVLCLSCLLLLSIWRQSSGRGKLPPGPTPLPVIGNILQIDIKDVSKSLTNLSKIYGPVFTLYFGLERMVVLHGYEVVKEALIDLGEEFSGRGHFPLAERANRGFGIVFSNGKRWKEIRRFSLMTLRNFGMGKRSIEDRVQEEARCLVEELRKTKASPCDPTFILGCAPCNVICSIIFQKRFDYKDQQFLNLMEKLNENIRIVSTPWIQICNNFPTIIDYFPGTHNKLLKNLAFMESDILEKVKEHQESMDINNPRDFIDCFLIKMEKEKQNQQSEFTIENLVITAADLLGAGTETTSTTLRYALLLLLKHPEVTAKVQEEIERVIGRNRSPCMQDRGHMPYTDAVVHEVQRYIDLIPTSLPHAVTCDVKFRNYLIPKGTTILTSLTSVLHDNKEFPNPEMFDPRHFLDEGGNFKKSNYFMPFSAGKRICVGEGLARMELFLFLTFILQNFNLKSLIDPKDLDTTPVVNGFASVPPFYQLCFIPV
Sequence of Multidrug and toxin extrusion protein 1 (Q96FL8 whole entry): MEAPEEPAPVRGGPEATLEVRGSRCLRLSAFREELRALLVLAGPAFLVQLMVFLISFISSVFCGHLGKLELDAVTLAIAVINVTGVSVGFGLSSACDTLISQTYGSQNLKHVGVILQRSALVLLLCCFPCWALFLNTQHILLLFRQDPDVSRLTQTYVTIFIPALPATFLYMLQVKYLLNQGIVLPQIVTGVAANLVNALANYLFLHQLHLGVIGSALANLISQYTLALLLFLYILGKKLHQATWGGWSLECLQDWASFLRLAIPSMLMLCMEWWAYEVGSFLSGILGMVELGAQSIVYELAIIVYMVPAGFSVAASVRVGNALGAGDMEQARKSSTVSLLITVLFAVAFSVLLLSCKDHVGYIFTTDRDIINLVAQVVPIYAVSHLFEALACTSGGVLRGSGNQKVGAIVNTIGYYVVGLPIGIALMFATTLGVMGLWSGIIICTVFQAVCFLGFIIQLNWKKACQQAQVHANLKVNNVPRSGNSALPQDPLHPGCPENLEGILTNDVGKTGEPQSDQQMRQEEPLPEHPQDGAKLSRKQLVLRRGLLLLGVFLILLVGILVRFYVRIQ
Sequence of UDP-glucuronosyltransferase 2B15 (P54855 whole entry): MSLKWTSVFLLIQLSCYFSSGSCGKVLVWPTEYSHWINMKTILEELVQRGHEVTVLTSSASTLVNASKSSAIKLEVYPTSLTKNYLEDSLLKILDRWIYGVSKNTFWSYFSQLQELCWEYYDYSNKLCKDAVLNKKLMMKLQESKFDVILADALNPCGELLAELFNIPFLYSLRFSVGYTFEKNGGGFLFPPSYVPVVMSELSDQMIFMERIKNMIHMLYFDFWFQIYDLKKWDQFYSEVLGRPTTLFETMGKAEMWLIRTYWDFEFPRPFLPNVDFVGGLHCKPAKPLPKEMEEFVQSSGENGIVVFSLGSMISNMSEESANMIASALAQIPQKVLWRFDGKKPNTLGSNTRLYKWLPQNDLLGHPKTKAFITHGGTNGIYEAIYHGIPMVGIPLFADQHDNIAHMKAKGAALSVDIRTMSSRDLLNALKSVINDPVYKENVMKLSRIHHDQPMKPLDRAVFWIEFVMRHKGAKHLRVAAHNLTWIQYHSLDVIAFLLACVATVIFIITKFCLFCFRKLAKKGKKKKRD
Sequence of Organic anion transporter 3 (Q8TCC7 whole entry): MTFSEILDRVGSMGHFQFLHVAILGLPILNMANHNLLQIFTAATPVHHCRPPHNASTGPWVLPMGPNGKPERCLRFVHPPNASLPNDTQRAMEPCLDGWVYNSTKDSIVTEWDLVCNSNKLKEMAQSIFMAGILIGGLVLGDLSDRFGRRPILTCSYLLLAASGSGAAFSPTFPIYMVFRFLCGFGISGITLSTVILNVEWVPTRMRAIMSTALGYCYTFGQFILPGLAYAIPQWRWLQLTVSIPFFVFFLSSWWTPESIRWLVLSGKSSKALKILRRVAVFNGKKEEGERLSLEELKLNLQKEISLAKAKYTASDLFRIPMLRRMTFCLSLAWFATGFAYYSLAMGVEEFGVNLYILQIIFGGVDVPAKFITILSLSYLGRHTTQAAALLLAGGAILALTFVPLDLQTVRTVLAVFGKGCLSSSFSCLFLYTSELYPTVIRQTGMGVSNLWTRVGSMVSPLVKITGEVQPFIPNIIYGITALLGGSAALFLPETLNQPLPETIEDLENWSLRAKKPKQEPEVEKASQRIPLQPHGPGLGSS
Sequence of Cytochrome P450 3A5 (P20815 whole entry): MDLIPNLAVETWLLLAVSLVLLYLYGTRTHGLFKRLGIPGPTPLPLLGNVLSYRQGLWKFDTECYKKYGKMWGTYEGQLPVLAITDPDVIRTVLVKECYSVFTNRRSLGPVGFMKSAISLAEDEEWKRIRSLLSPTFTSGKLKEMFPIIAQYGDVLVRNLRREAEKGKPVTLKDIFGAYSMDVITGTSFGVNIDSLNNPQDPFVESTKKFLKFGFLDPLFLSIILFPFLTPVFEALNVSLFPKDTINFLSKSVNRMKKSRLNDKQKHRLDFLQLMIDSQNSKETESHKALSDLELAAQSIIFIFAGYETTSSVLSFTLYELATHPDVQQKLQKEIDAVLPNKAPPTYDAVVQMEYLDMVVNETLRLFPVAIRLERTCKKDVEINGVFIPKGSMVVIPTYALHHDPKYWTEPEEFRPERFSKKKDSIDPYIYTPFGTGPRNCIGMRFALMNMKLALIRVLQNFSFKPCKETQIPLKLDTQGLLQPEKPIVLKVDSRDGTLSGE

SMILES: COc1c(F)ccc(-c2c(C(=O)O)sc3cc(F)ccc23)c1F
- CLH(app) [1]: 26 µL/min
- Papp A→B (in vitro): 26 ×10⁻⁶ cm/s
- logD (physchem): 1.1

SMILES: O=C(O)c1sc2cc(F)ccc2c1Cl
- CLH(app) [1]: < 2 µL/min
- Papp A→B (in vitro): 30 ×10⁻⁶ cm/s
- logD (physchem): 0.5

SMILES: COc1c(F)c(F)cc(-c2c(C(=O)OC3O[C@H](C(=O)O)[C@@H](O)[C@H](O)[C@H]3O)sc3cc(F)ccc23)c1F (some centres undefined)
- Retention_time [2]: 17.6 min
- half-life [3]: ~82 min

SMILES: Cc1c(F)c(F)cc(-c2c(C(=O)O)sc3cc(F)ccc23)c1F
- Papp A→B (in vitro): 11 ×10⁻⁶ cm/s
- logD (physchem): 1.6

SMILES: O=C(O)c1sc2cc(F)ccc2c1-c1cc(F)c(F)cc1F
- CLH(app) [1]: 23 µL/min
- Papp A→B (in vitro): 10 ×10⁻⁶ cm/s
- logD (physchem): 1.3

SMILES: CCOc1c(F)ccc(-c2c(C(=O)O)sc3cc(F)ccc23)c1F
- CLH(app) [1]: 43 µL/min
- Papp A→B (in vitro): 16 ×10⁻⁶ cm/s
- logD (physchem): 1.5

SMILES: COc1cccc(-c2c(C(=O)O)sc3cc(F)ccc23)c1F
- CLH(app) [1]: 23 µL/min
- Papp A→B (in vitro): 28 ×10⁻⁶ cm/s
- logD (physchem): 1

SMILES: CCc1c(F)c(F)cc(-c2c(C(=O)O)sc3cc(F)ccc23)c1F
- CLH(app) [1]: 52 µL/min
- Papp A→B (in vitro): 11 ×10⁻⁶ cm/s
- logD (physchem): 2.2

SMILES: O=C(O)c1sc2cc(F)sc2c1Cl
- PB [4]: 103 pmol
- CLH(app) [1]: < 2.7 µL/min
- Papp A→B (in vitro): 14 ×10⁻⁶ cm/s
- logD (physchem): 0.1

SMILES: COc1c(F)cc(F)c(-c2c(C(=O)O)sc3cc(F)ccc23)c1F
- Ratio IC50 [5]: 7
- Ratio IC50 [6]: 36
- CLH(app) [1]: 21 µL/min
- Papp A→B (in vitro): 20 ×10⁻⁶ cm/s
- logD (physchem): 1

SMILES: COc1c(F)c(F)cc(-c2c(C(=O)O)sc3cc(F)ccc23)c1F
- IC50 (Cytochrome P450 3A4 [7]): > 100 µM
- IC50 [8]: 41 nM
- Drug metabolism [9]: metabolite_detected
- Drug metabolism (Cytochrome P450): metabolite_detected
- Drug metabolism [10]: metabolite_detected
- IC50 [11]: > 80 µM
- Drug metabolism [12]: metabolite_detected
- IC50 (Cytochrome P450 1A2): 1100 nM
- IC50 [13]: > 80 µM
- IC50 (Cytochrome P450 3A5): > 100 µM
- IC50 (Cytochrome P450 3A4 [14]): > 100 µM
- IC50 (Cytochrome P450 2D6): > 100 µM
- IC50 [15]: > 80 µM
- IC50 [16]: 4.5 µM
- IC50 (Cytochrome P450 2B6): 6.7 µM
- IC50 [17]: > 80 µM
- IC50 [18]: > 80 µM
- IC50 (Cytochrome P450 2C9): 1000 nM
- Drug metabolism [19]: metabolite_detected
- IC50 (Cytochrome P450 2C19): > 100 µM
- IC50 [20]: > 80 µM
- Drug metabolism [21]: metabolite_detected
- IC50 [22]: 3.3 µM
- IC50 [23]: 670 nM
- IC50 (Cytochrome P450 2C8): 23.6 µM

SMILES: O=C(O)c1sc2cc(F)ccc2c1-c1ccccc1
- CLH(app) [1]: 31 µL/min
- logD (physchem): 1.1

SMILES: COc1cccc(-c2c(C(=O)O)sc3cc(F)ccc23)c1
- CLH(app) [1]: 32 µL/min
- Papp A→B (in vitro): 8.5 ×10⁻⁶ cm/s
- logD (physchem): 1.4

SMILES: O=C(O)c1sc2cc(Cl)ccc2c1Cl
- CLH(app) [1]: 5.2 µL/min
- Papp A→B (in vitro): 31 ×10⁻⁶ cm/s
- logD (physchem): 0.7

— ChEMBL document CHEMBL6120980, “Discovery of First Branched-Chain Ketoacid Dehydrogenase Kinase (BDK) Inhibitor Clinical Candidate PF-07328948” (J Med Chem, 2025)
